In patent publication US11690899B2, “Combination of bactericidal agent with a lysosomotropic alkalinising agent for the treatment of a bacterial infection” (priority 2015, dated 2023):

What was measured:
S. aureus Cowan [1] = assay: S. aureus Cowan-infected A549 cells treated with flucloxacillin and lysosomotropic alkalinizing agents (intracellular persisters, SCVs); format: cell-based, Staphylococcus aureus; conditions: for effect on phagolysosomal pH: infected host cells
Procedure: Reduction of S. aureus persisters through phagolysosome alkalinization. S. aureus Cowan-infected A549 cells were treated with flucloxacillin alone (control) or supplemented with lysosomotropic alkalinizing agents (chloroquine (a), bafilomycin A1 (b) and ammonium chloride (c)). Colony phenotypes of viable intracellular persisting bacteria were determined and enumerated at indicated time points. Data were pooled from three independent experiments done in triplicates, mean±SEM. Two-way ANOVA found the factors time and treatment to be significant (p-value<0.01).
MSSA strain Cowan is highly invasive, but not cytotoxic which allowed maintaining this strain intracellularly over several days in the lung epithelial cell line A549. Extracellular bacteria were killed by adding a high dose of flucloxacillin to the infected host cells. Flucloxacillin is typically used to treat S. aureus endocarditis in patients. Absence of extracellular bacteria was confirmed by sterility of culture supernatants. Host cells were lysed to release intracellular bacteria and colony counts, as well as colony phenotypes, were determined at various time points. […] The number of viable intracellular persisting bacteria decreased during the course of infection while the frequency of SCVs increased and reached 5.6% after seven days.
No differences in total colony counts between control and treated cells were observed. […] No significant differences in host cell viability were observed after treatment with the alkalinizing agents.
Growth resumption of S. aureus persisters through treatment of host cells with chloroquine was assessed. […] We observed no dividing bacteria in infected host cells without chloroquine treatment.

S. aureus Cowan [2] = assay: In vivo infection model: mice infected intraperitoneally with S. aureus Cowan; set-up: species or system Staphylococcus aureus
Procedure: Mice were infected with S. aureus Cowan intraperitoneally. Six hours and two days post-infection mice were treated with 1 mg flucloxacillin and 0.2 mg chloroquine (+CQ). Mice treated with flucloxacillin only served as control (−CQ). †, sacrifice (a). Colony phenotypes of bacteria recovered from target tissues (b), peripheral blood and peritoneal lavage (c) were determined and enumerated. Each point represents one mouse. Horizontal bars indicate mean±SEM, n=11 mice per group. PL, peritoneal lavage. Two-way ANOVA found the factor treatment to be significant (p-value<0.01).
Mice infected with S. aureus Cowan were treated with flucloxacillin alone (control), or in combination with chloroquine (FIG. 5a).

SMILES | effect on phagolysosomal pH (S. aureus Cowan [1]) | bacterial cell division (transmission electron microscopy) (S. aureus Cowan [1]; three days post-infection, vs host cells without chloroquine) | frequency of SCVs in various organs and compartments (S. aureus Cowan [2]; 1 mg flucloxacillin and 0.2 mg chloroquine at six hours and two days post-infection vs flucloxacillin only) | absolute bacterial numbers (S. aureus Cowan [2]; flucloxacillin with vs without chloroquine)
CCN(CC)CCCC(C)Nc1ccnc2cc(Cl)ccc12 (stereo not drawn) [Chloroquine, chloroquine] | neutralized the phagolysosomal pH | facilitated bacterial cell division | significantly reduced | comparable
Cl.N [ammonium chloride] | neutralized the phagolysosomal pH | – | – | –
CO/C1=C\C(C)=C\[C@@H](C)[C@@H](O)[C@@H](C)C/C(C)=C/C=C/[C@H](OC)[C@@H]([C@@H](C)[C@@H](O)[C@H](C)[C@@]2(O)C[C@@H](O)[C@H](C)[C@@H](C(C)C)O2)OC1=O [bafilomycin A1] | neutralized the phagolysosomal pH | – | – | –
